{"source": "patent US20240011027A1", "about": "“METHODS AND COMPOSITIONS FOR RESTORING STMN2 LEVELS” (President and Fellows of Harvard College, priority 2020, published 2024)", "type_in_all_cases": "cell-based, human", "key": {"TDP-43 [1]": {"system": "TDP-43", "experiment": "immunoblot of TDP-43 in detergent-soluble (RIPA) and detergent-insoluble (UREA) fractions after MG-132", "protocol": "(§1) To determine what happened to TDP-43 after proteasome inhibition, TDP-43 levels were examined by immunoblot analysis in both the detergent-soluble and detergent-insoluble fractions. […] Finally, STMN2 levels in neurons treated with either a short-term high dose or a long-term low dose of MG-132 were probed.\nFor analysis of TDP-43 and STMN2 protein expression levels, d10 MNs were lysed in RIPA buffer (150 mM Sodium Chloride; 1% Triton X-100; 0.5% sodium deoxycholate; 0.1% SDS; 50 mM Tris pH 8.0) containing protease and phosphatase inhibitors (Roche) for 20 min on ice, and centrifuged at high speed. 200 μL of RIPA buffer per well of 24-well culture were routinely used, which yielded ˜20 μg of total protein as determined by BCA (Thermo Scientific). After two washes with RIPA buffer, insoluble pellets were resuspended in 200 μl of UREA buffer (Bio-Rad). For immunoblot assays 2-3 μg of total protein were separated by SDS-PAGE (BioRad), transferred to PDVF membranes (BioRad) and probed with antibodies against TDP-43 (1:1000, ProteinTech Group), GAPDH (1:1000, Millipore) and STMN2 (1:3000, Novus). Insoluble pellets were loaded based on protein concentration of correspondent RIPA-soluble counterparts. […] GAPDH levels were used to normalized each sample, and LiCor software was used to quantitate protein band signal."}, "STMN2 cryptic exon": {"system": "STMN2 cryptic exon", "experiment": "RT-PCR detection of transcripts containing the STMN2 cryptic exon in hMNs treated with proteasome inhibitors", "quoted_text": "It was then asked if cryptic exon inclusion could be contributing to decreased STMN2 levels in hMNs after proteasome inhibition. To accomplish this goal, an RT-PCR assay was developed to detect transcripts containing the cryptic exon (FIG. 5F). […] Total RNA was isolated from neurons using RNeasy Mini Kit (Qiagen) according to manufacturer's instructions. A total of 300-1000 ng of total RNA was used to synthesize cDNA by reverse transcription according to the iSCRIPT kit (Bio-rad). RT-PCR was then performed using one cryptic exon-specific primer and then analyzed using the Agilent 2200 Tapestation."}, "proteasome": {"system": "proteasome", "experiment": "proteasome activity assay in hMNs treated with MG-132", "settings": "overnight 1 μM treatment"}, "STMN2 [2]": {"system": "STMN2", "experiment": "qRT-PCR of STMN2 expression in hMNs treated with proteasome inhibitors", "settings": "short-term high dose or long-term low dose", "protocol": "as §1\nTotal RNA was isolated from d10 MNs for RNA-Seq experiments and validation assays using Trizol LS (Invitrogen) according to manufacturer's instructions. 500 μL were added per well of the 24-well cultures. A total of 300-1000 ng of total RNA was used to synthesize cDNA by reverse transcription according to the iSCRIPT kit (Bio-rad). Quantitative RT-PCR (qRT-PCR) was then performed using SYBR green (Bio-Rad) and the iCycler system (Bio-rad). Quantitative levels for all genes assayed were normalized using GAPDH expression. […] All primer sequences are available upon request. For next-generation RNA sequencing (RNA-Seq), at least two technical replicas per siRNA sample or AAVS1-TDP43 genotype were included in the analyses. After RNA extraction, samples with RNA integrity numbers (RIN) above 7.5, determined by a bioAnalyzer, were used for library preparation. […] All FASTQ files were analyzed using the bcbioRNASeq workflow and toolchain (90). […]"}, "TDP-43 [3]": {"system": "TDP-43", "experiment": "TDP-43 localization by immunostaining, Pearson's correlation with DAPI, after MG-132 pulse-chase", "protocol": "For immunofluorescence, cells were fixed with ice-cold 4% PFA for 15 minutes at 4° C., permeabilized with 0.2% Triton-X in lx PBS for 45 minutes and blocked with 10% donkey serum in lx PBS-T (0.1% Tween-20) for 1 hour. Cells were then incubated overnight at 4° C. with primary antibody (diluted in blocking solution). At least 4 washes (5 min incubation each) with 1×PBS-T were carried out, before incubating the cells with secondary antibodies for 1 hour at room temperature (diluted in blocking solution). Nuclei were stained with DAPI. The following antibodies were used in this study: Hb9 (1:100, DSHB, MNR2 81.5C10-c), TUJ1 (1:1000, Sigma, T2200), MAP2 (1:10000, Abcam ab5392), Ki67 (1:400, Abcam, ab833), GFP (1:500, Life Technologies™, A10262), Islet1 (1:500, Abcam ab20670), TDP-43 (1:500, ProteinTech Group), STMN2 (1:4000, Novus), AlexaFluor™ 647-Phalloidin (1:200,). Secondary antibodies used (488, 555, 594, and 647) were AlexaFluor™ (1:1000, Life Technologies™) and DyLight (1:500, Jackson ImmunoResearch Laboratories). Micrographs were analyzed using FIJI software to determine the correlation coefficient."}, "STMN2 RNA": {"system": "STMN2 RNA", "experiment": "qRT-PCR of full-length STMN2 after proteasome inhibition with MG-132 in patient's motor neurons", "settings": "MG-132 (1 uM); patient's neurons", "description": "It was established that ASO (SJ+94) and ASO (SJ-1) suppressed cryptic splicing of STMN2 and restored full length STMN2 RNA in the patient's motor neurons when there is a reduction in nuclear TDP-43. […] Post-mortem tissue studies have shown that TDP-43 mis-localization and its aggregation in cytoplasm is a hallmark of sporadic ALS. Several groups have reported cytoplasmic aggregation of TDP-43 akin to that observed in post-mortem tissue of sporadic ALS patients occurs in response to pharmacological inhibition of the proteasome (1, 4)."}, "STMN2 [4]": {"system": "STMN2", "experiment": "STMN2 mRNA expression in HUES3, IG2 (Stmn2 KO) and CN7 (cryptic exon deletion) lines stressed with MG132", "settings": "1 uM for 24 hours", "protocol": "Three cell lines, HUES3, IG2 (Stmn2 KO), and CN7 (cryptic exon deletion) were treated with normal media or media+1 uM MG132 for 24 hours to stress the cells. In HUES3 cells, the stressed condition had 52% STMN2 mRNA expression compared to the unstressed condition. In IG2 (Stmn2 KO) condition, unstressed cells had 13% expression, and when stressed, expression increased to 42%. […] It was shown that if several exons are knocked out the expression goes down, but if the TDP-43 binding site is removed, expression goes way up."}}, "note": "Where a SMILES comes first, the peptide text is derived from it. The star is where a group is joined. Cbz = O=C(OCc1ccccc1)*"}
{"smiles": "CC(C)C[C@@H](C=O)NC(=O)[C@H](CC(C)C)NC(=O)[C@H](CC(C)C)NC(=O)OCc1ccccc1", "note": "[MG-132] (Cbz-Leu-Leu-Leu-aldehyde)", "values": [{"measurement": "TDP-43 levels in soluble lysates", "setting": "TDP-43 [1]; control neurons treated with a low dose", "result": "significantly decreased TDP-43 levels"}, {"measurement": "TDP-43 in UREA (insoluble) fraction", "setting": "TDP-43 [1]; proteasome inhibition", "result": "triggers TDP-43 to become insoluble"}, {"measurement": "transcripts containing the STMN2 cryptic exon (PCR assay)", "setting": "STMN2 cryptic exon", "result": "presence of transcripts containing the STMN2 cryptic exon"}, {"measurement": "proteasome activity", "setting": "proteasome", "result": "less than 10 % of normal activity"}, {"measurement": "STMN2 mRNA levels", "setting": "STMN2 [2]", "result": "significant decreases"}, {"measurement": "TDP-43 staining in the nucleus", "setting": "TDP-43 [3]; 24 hour 1 μM pulse, hMNs", "result": "greatly diminished"}, {"measurement": "TDP-43 staining following washout", "setting": "TDP-43 [3]; after 24 hour 1 μM pulse and washout", "result": "indistinguishable to unchallenged neurons after 4 days"}, {"measurement": "STMN2 expression after proteasome inhibition", "setting": "STMN2 RNA", "result": "decreased STMN2 expression"}, {"measurement": "STMN2 mRNA expression", "setting": "STMN2 [4]; CN7 (Cryptic Exon Deletion) cells, unstressed 729%", "result": 473, "unit": "%"}, {"measurement": "STMN2 mRNA expression compared to the unstressed condition", "setting": "STMN2 [4]; HUES3 cells", "result": 52, "unit": "%"}, {"measurement": "STMN2 mRNA expression", "setting": "STMN2 [4]; IG2 (Stmn2 KO) cells, unstressed 13%", "result": 42, "unit": "%"}]}
